From publication PMC10730845, “Endoxifen downregulates AKT phosphorylation through protein kinase C beta 1 inhibition in ERα+ breast cancer” (NPJ Breast Cancer, 2023)

Experiments:
PKC zeta (PKCz) = PKC zeta (PKCz) (Homo sapiens, UniProt Q05513); assay: In vitro kinase assay, PKC zeta; assay type: biochemical; details: 10 μM ATP
Source text: Supplementary Table 4. In vitro kinase assay showing the IC 50 concentration of ENDX and
of the 12 PKC family members.
(1 picture or pasted object on this page, not shown here)

[1] = test system: AKT phosphorylation (pAKT^Ser473, pAKT^Thr308, p-AKT substrates) in MCF7AC1 cells; assay: Immunoblot of AKT signaling and PARP cleavage, MCF7AC1; assay type: cell-based, human
Description: The ENDX hydrochloride utilized in this study was synthesized in collaboration between Mayo Clinic and National Institute of Health (NIH). Estrogen deprived MCF7AC1 were treated with vehicle control or ENDX (National Cancer Institute) for 24 h. […] For the insulin (Sigma-Aldrich, #I0516) experiments, MCF7AC1 and T47D cells were maintained in serum-free medium for 24 h prior to pretreatment with vehicle control or drugs for 2 h followed by treatment with 100 nM insulin for 1 h.
(§1) Protein lysates were prepared using the RIPA lysis buffer system (ChemCruz #sc-24948) and quantified using the DC^TM Protein Assay reagents (Bio-Rad #5000112). Equal amounts of protein lysates were separated on 10% Criterion gels (Bio-Rad #3450112), transferred to PVDF membranes (Bio-Rad #1620177), blocked in TBST-5% milk and probed with primary antibodies listed in Supplementary Table 5, at the indicated dilutions. Membranes were incubated with HRP-conjugated anti-rabbit (CST #7074) or anti-mouse (CST #7076) secondary antibodies and visualized using chemiluminescent West Pico (Thermo Scientific #34580) or West Femto (Thermo Scientific #34096) reagents and a Li-Cor Odyssey® XF imager. Protein lysates from the MCF7AC1 xenograft model were obtained from a previous study. Quantitation of the protein bands signal intensity was performed using the NIH ImageJ image analysis software (https://imagej.nih.gov/ij///index.html). For the quantitation of the phospho protein levels, we first normalized total protein levels to β-actin loading control and used these values to normalize the phospho protein levels and compared change in protein expression levels relative to vehicle control normalized to 1.0. For the quantitation of total protein levels, we normalized the total protein levels to β-actin and compared change in expression levels relative to vehicle control normalized to 1.0. All blots were processed in parallel and derived from the same experiments. Unprocessed immunoblot images are provided in Supplementary Figs. 9–13.

[2] = test system: MCF7AC1 aromatase inhibitor-sensitive and -resistant models; design: method as in PMID 32430040; details: cited from earlier work
[3] = test system: AKT phosphorylation in T47D cells; assay: Immunoblot of AKT phosphorylation, serum starved T47D; assay type: cell-based, human; details: not at 0.01 or 0.10 µM
Description: The ENDX hydrochloride utilized in this study was synthesized in collaboration between Mayo Clinic and National Institute of Health (NIH). Estrogen deprived MCF7AC1 were treated with vehicle control or ENDX (National Cancer Institute) for 24 h. For the phorbol 12-myristate 13-acetate (PMA) (LC Laboratories, #P-1680) experiments, MCF7AC1 cells were maintained in serum-free medium for 24 h prior to pretreatment with vehicle or ENDX for 2 h followed by treatment with 20 or 200 nM PMA for 20 min. For the insulin (Sigma-Aldrich, #I0516) experiments, MCF7AC1 and T47D cells were maintained in serum-free medium for 24 h prior to pretreatment with vehicle control or drugs for 2 h followed by treatment with 100 nM insulin for 1 h.
as §1, with “Protein lysates from the MCF7AC1 xenograft model were obtained from a previous study.” left out, “All blots were processed in parallel and derived from the same experiments. Unprocessed immunoblot images are provided in Supplementary Figs. 9–13.” left out

MCF7AC1 xenograft tumors = assay: Immunoblot of MCF7AC1 xenograft tumor lysates after in vivo treatment; design: species or system mice; details: four weeks
Description: as §1
Supplementary Figure 2. […]
Supplementary Figure 6. […]
MK-2206 in CSS medium for 24 hours. IB assay of pAKTSer473, AKT, PARP, cleaved PARP and
β-actin. d, MCF7AC1 xenograft protein lysates were treated with the indicated drugs for four
weeks. […]
ANOVA for figs. (a), (b), (g), (h) and (i) and unpaired t test for fig. (e).

[4] = CSS medium, 24 h, not at 0.01 and 0.1 μM

Sequence of PKC zeta (PKCz) (Q05513 whole entry): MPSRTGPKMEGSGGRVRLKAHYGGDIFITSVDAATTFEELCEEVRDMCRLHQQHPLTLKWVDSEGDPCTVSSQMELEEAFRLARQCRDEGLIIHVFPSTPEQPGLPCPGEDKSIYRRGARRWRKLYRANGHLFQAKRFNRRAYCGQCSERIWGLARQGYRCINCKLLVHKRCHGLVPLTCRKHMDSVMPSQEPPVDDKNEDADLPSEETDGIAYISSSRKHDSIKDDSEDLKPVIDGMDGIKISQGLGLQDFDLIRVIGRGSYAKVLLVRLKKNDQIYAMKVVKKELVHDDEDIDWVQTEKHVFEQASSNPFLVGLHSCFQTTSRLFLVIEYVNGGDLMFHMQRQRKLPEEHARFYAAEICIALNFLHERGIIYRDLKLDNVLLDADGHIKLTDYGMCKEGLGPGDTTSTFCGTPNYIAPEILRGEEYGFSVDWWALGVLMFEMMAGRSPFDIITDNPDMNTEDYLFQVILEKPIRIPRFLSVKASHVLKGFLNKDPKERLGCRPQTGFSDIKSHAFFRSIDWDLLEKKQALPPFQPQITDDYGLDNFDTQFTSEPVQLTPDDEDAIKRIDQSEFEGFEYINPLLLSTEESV

In the case of `CC/C(=C(\c1ccc(O)cc1)c1ccc(OCCNC)cc1)c1ccccc1` [ENDX, Z-endoxifen], the IC50 (PKC zeta (PKCz)) is reported as 48.1 µM, the “Effect on AKT^Thr308 phosphorylation” value ([1]; CSS medium, 24 h, 5 µM) is reported as “did not alter AKT^Thr308 phosphorylation” and the “Concentration increasing PARP cleavage” value ([1]; CSS medium, 24 h, 0.01, 0.1 and 5 µM tested) is reported as 5 µM. The “Effect on AKT^Thr308 phosphorylation” value ([1]; CSS medium, 24 h, 0.01 and 0.1 µM) was “stimulated AKT^Thr308 phosphorylation”, the “Concentration attenuating AKT^Ser473 phosphorylation” value [1, 4] was 5 µM and the “Concentration reducing phosphorylation of AKT substrates” value [1, 4] was 5 µM. For the same molecule, the “Effect on insulin-stimulated AKT^Thr308 phosphorylation” value ([1]; serum starved, 100 nM insulin 1 h, 5 μM) was “able to block AKT^Thr308 phosphorylation”, the “Effect on insulin-stimulated phosphorylation of AKT substrates” value ([1]; serum starved, 2 h pretreatment, 100 nM insulin 1 h, 5 µM) was “diminished insulin-stimulated phosphorylation of AKT substrates” and the “Concentration blocking insulin-stimulated AKT^Ser473 phosphorylation” value ([1]; serum starved, 2 h pretreatment, 100 nM insulin 1 h, not at 0.01 and 0.1 μM) was 5 µM. The “Effect on PMA-stimulated AKT^Ser473 phosphorylation” value ([1]; serum starved, 2 h pretreatment, 200 nM PMA 20 min, 5 μM) was “reduced AKT^Ser473 phosphorylation”, the “In vivo antitumor activity” value [2] was “superior in vivo antitumor activity compared to TAM and letrozole” and the “Concentration blocking insulin-stimulated AKT^Ser473 phosphorylation” value [3] was 5 µM. For the same molecule, the “Effect on AKT phosphorylated substrates in tumors” value (MCF7AC1 xenograft tumors; 75 mg/kg) was “reduced the levels of AKT phosphorylated substrates”, the “Effect on AKT^Thr308 phosphorylation in tumors” value (MCF7AC1 xenograft tumors; 75 mg/kg) was “no appreciable impact on AKT^Thr308 phosphorylation” and the “Effect on AKT^Ser473 phosphorylation in tumors” value (MCF7AC1 xenograft tumors; 75 mg/kg, vs control treatment) was “attenuated AKT^Ser473 phosphorylation”. The “Dose increasing PARP cleavage in tumors” value (MCF7AC1 xenograft tumors; not at 25 mg/kg) was 75 mg/kg.
